Target: one or more of HDAC4, HDAC5, HDAC6, HDAC7, HDAC8, HDAC9 and HDAC11
Assay: Inhibition of histone deacetylase enzymatic activity (fluorogenic Boc-Lys(Ac)-AMC / Boc-Lys(trifluoroacetyl)-AMC substrate)
Type: biochemical
Conditions: against one or more of HDAC4, HDAC5, HDAC6, HDAC7, HDAC8, HDAC9 and HDAC11
Method: Inhibition of HDAC-1,2,3,6 and 8
The following protocol is used to assay the compounds of the invention. In the assay, the buffer used is 25 mM HEPES, pH 8.0, 137 mM NaCl, 2.7 mM KCl, 1 mM MgCl2 and the substrate is Boc-Lys(Ac)-AMC in a 50 mM stock solution in DMSO. The enzyme stock solution is 4.08 μg/mL in buffer.
The compounds are pre-incubated (2 μl, in DMSO diluted to […] in buffer for transfer to assay plate) with enzyme (20 μL of 4.08 μg/mL) for 10 minutes at room temperature (35 μL pre-incubation volume). The mixture is pre-incubated for 5 minutes at room temperature. The reaction is started by bringing the temperature to 37° C. and adding 15 μL substrate. Total reaction volume is 50 μL. The reaction is stopped after 20 minutes by addition of 50 μL developer, prepared as directed by Biomol (FLUOR DE LYS™ developer, Cat. # KI-105). A plate is incubated in the dark for 10 minutes at room temperature before reading (λEx=360 nm, λEm=470 nm, Cutoff filter at 435 nm).
Inhibition of Class II HDAC and HDAC-11
A 30 mM stock of Boc-Lys(trifluoroacetyl)-AMC substrate is prepared in DMSO. 2 μL test compound in DMSO is diluted to 50 μL in buffer (25 mM HEPES, pH 8.0, 137 mM NaCl, 2.7 mM KCl, 1 mM MgCl2, 0.1% BSA) and pre-incubated with HDAC enzyme (30 μL of a final enzyme concentration of 0.1-0.2 nM) for 10 minutes at room temperature. Reaction is started by adding 18 μL Boc-Lys(trifluoroacetyl)-AMC substrate and incubating at 37° C. for 20-30 minutes. The reaction is stopped by adding 50 μL trypsin (1 mg/mL) and a known HDAC inhibitor. The plate is then incubated in the dark for 20 minutes at room temperature and read with Ex=360 nm, Em=470 nm, cutoff filter at 435 nm.

SMILES | IC50 [nM]
O=C(NO)c1sc(N2CCCc3ccccc32)nc1-c1ccccc1 [Compound 121, 2-(3,4-dihydroquinolin-1(2H)-yl)-N-hydroxy-4-phenylthiazole-5-carboxamide] | < 250
O=C(NO)c1cn(-c2ccccc2)nc1-c1ccc(F)cc1 [Compound 108, 3-(4-fluorophenyl)-N-hydroxy-1-phenyl-1H-pyrazole-4-carboxamide] | 750 to 5000
O=C(NO)c1sc(-c2ccccc2)cc1-c1ccccc1 [Compound 89, N-hydroxy-3,5-diphenylthiophene-2-carboxamide] | 250 to 500
O=C(NO)c1cn(-c2ccccc2)nc1-c1ccccc1 [Compound 32, N-hydroxy-1,3-diphenyl-1H-pyrazole-4-carboxamidc] | 500 to 750
O=C(NO)c1sc(-c2ccc(N3CCOCC3)cc2)nc1-c1ccccc1 [Compound 109, N-hydroxy-2-(4-morpholino-phenyl)-4-phenylthiazole-5-carboxamide] | < 250
O=C(NO)c1cnc(-c2ccccc2)nc1-c1ccccc1 [Compound 141, N-hydroxy-2,4-diphenylpyrimidine-5-carboxamide] | 250 to 500
COc1cccc(-c2ccc(C(=O)NO)c(-c3cccc(OC)c3)c2)c1 [Compound 50] | 750 to 5000
O=C(NO)c1sc(-c2ccccc2)cc1-c1ccccc1 [Compound 92, N-hydroxy-3,5-diphenylthiophene-2-carboxamide] | < 250
O=C(NO)c1sc2ccc(NS(=O)(=O)c3ccccc3)cc2c1-c1ccccc1 [Compound 126, N-hydroxy-3-phenyl-5-(phenylsulfonamido) benzo[b] thiophene-2-carboxamide] | 500 to 750
O=C(NO)c1sc(C2CCN(C(=O)N3CCCC3)CC2)nc1-c1ccccc1 [Compound 145, N-hydroxy-4-phenyl-2-(1-(pyrrolidine-1-carbonyl)piperidin-4-yl)thiazole-5-carboxamide] | < 250
O=C(NO)c1sc(-c2cccnc2)nc1-c1ccccc1 [Compound 120, N-hydroxy-4-phenyl-2-(pyridin-3-yl)thiazole-5-carboxamide] | < 250
CCOC(=O)N1CCC(c2nc(-c3ccccc3)c(C(=O)NO)s2)CC1 [Compound 147, ethyl 4-(5-(hydroxycarbamoyl)-4-phenylthiazol-2-yl)piperidine-1-carboxylate] | < 250
O=C(NO)c1sc2ccc(NS(=O)(=O)c3cccs3)cc2c1-c1ccccc1 [Compound 160] | 250 to 500
O=C(NO)c1sc(C2CCN(Cc3ccccc3)CC2)nc1-c1ccccc1 [Compound 132, 2-(1-benzylpiperidin-4-yl)-N-hydroxy-4-phenylthiazole-5-carboxamide] | < 250
CN(Cc1ccccc1)C(=O)OCc1cc(-c2ccccc2)c(C(=O)NO)s1 [Compound 181, (5-(hydroxycarbamoyl)-4-phenylthiophen-2-yl)methyl benzyl(methyl)carbamate] | < 250
O=C(NO)c1ccc(C2=Nc3ccccc3Oc3ccccc32)cc1-c1ccccc1 [Compound 104, (Z)-5-(dibenzo[b,f][1,4]oxazepin-11-yl)-N-hydroxybiphenyl-2-carboxamide] | < 250
O=C(NO)c1sc(C2CCN(CCc3c[nH]c4ccccc34)CC2)nc1-c1ccccc1 [Compound 152, 2-(1-(2-(1H-indol-3-yl)ethyl)piperidin-4-yl)-N-hydroxy-4-phenylthiazole-5-carboxamide] | < 250
O=C(NO)c1sc(-c2ccc3c(c2)CCO3)nc1-c1ccccc1 [Compound 139, 2-(2,3-dihydrobenzofuran-5-yl)-N-hydroxy-4-phenylthiazole-5-carboxamide] | 750 to 5000
O=C(NO)c1sc(-c2ccc(OCCN3CCOCC3)cc2)nc1-c1ccccc1 [Compound 146, N-hydroxy-2-(4-(2-morpholinoethoxy)phenyl)-4-phenylthiazole-5-carboxamide] | < 250
CN(Cc1ccccc1)Cc1cc(-c2ccccc2)c(C(=O)NO)s1 [Compound 182, 5-((benzyl(methyl)amino)methyl)-N-hydroxy-3-phenylthiophene-2-carboxamide] | < 250
O=C(NO)c1sc(-c2ccccc2)nc1-c1ccccc1 [Compound 74, N-hydroxy-2,4-diphenylthiazole-5-carboxamide] | < 250
O=C(NO)c1sc(-c2cccs2)nc1-c1ccccc1 [Compound 140, N-hydroxy-4-phenyl-2-(thiophen-2-yl)thiazole-5-carboxamide] | 500 to 750
O=C(Cc1ccc(C(F)(F)F)cc1)Nc1ccc(C(=O)NO)c(-c2ccccc2)c1 [Compound 155, N-hydroxy-5-(2-(4-(trifluoromethyl)phenyl)acetamido) biphenyl-2-carboxamide] | < 250

SMILES | IC50 [nM]
O=C(NO)c1ccccc1-n1cccc1 [Compound 21, N-hydroxy-2-(lH-pyrrol-1-yl)benzamide] | 750 to 5000
O=C(NO)c1sc(COc2ccccc2)cc1-c1ccccc1 [Compound 125, N-hydroxy-5-(phenoxymethyl)-3-phenylthiophene-2-carboxamide] | < 250
Cc1cscc1-c1cccc(-c2ccccc2C(=O)NO)c1 [Compound 29, N-hydroxy-3′-(4-methyl-thiophen-3-yl) biphcnyl-2-carboxamidc] | 500 to 750
CN(C)c1ccc(-c2ccc(C(=O)NO)c(-c3ccccc3)c2)cc1 [Compound 116, 5-(4-dimethylamino-phenyl)-N-hydroxybiphenyl-2-carboxamide] | < 250
O=C(NO)c1sc2ccc(NS(=O)(=O)Cc3ccccc3)cc2c1-c1ccccc1 [Compound 157, N-hydroxy-3-phenyl-5-(phenylmethyl-sulfonamido) benzo[b]thiophene-2-carboxamide] | < 250
O=C(NO)c1sc(C2CCN(Cc3ccncc3)CC2)nc1-c1ccccc1 [Compound 144, N-hydroxy-4-phenyl-2-(1-(pyridin-4-ylmethyl)piperidin-4-yl)thiazole-5-carboxamide] | < 250
CS(=O)(=O)N1CCC(c2nc(-c3ccccc3)c(C(=O)NO)s2)CC1 [Compound 148, N-hydroxy-2-(1-(methylsulfonyl)piperidin-4-yl)-4-phenylthiazole-5-carboxamide] | < 250
O=C(NO)c1cn(Cc2ccccc2)nc1-c1ccccc1 [Compound 106, 1-benzyl-N-hydroxy-3-phenyl 1H-pyrazole-4-carboxamide] | 250 to 500
COc1cccc(-c2ccccc2C(=O)NO)c1 [Compound 19, N-hydroxy-3′-melhoxybipheny 1-2-carboxamide] | 750 to 5000
O=C(NO)c1sc(-c2ccc3c(c2)OCO3)nc1-c1ccccc1 [compound 81] | < 250
CC(=O)Nc1ccc(S(=O)(=O)N2CCC(c3nc(-c4ccccc4)c(C(=O)NO)s3)CC2)cc1 [Compound 158, 2-(1-(4-acetamidophenyl-sulfonyl)piperidin-4-yl)-N-hydroxy-4-phenylthiazole-5-carboxamide] | < 250
Cc1cscc1-c1ccc(C(=O)NO)c(-c2cscc2C)c1 [Compound 51, N-hydroxy-2,4-bis(4-methylthiophen-3-yl)benzamide] | < 250
O=C(NO)c1ccccc1-c1cccc(F)c1 [Compound 27, 3′-fluoro-N-hydroxybiphenyl-2-carboxamide] | 750 to 5000
O=C(NO)c1sc(-c2ccccn2)nc1-c1ccccc1 [Compound 153, N-hydroxy-4-phenyl-2-(pyridin-2-yl)thiazole-5-carboxamide] | 250 to 500
O=C(NO)c1cnc(-c2ccccc2)nc1-c1cccc(F)c1 [Compound 143, 4-(3-fluorophenyl)-N-hydroxy-2-phenylpyrimidine-5-carboxamide] | 250 to 500
COc1ccc(S(=O)(=O)Nc2ccc3sc(C(=O)NO)c(-c4ccccc4)c3c2)cc1 [Compound 154, N-hydroxy-5-(4-methoxyphenyl-sulfonamido)-3-phenylbenzo[b] thiophene-2-carboxamide] | 500 to 750
O=C(NO)c1sc(-c2csc3ccccc23)nc1-c1ccccc1 [Compound 110, 2-(benzo[b]thiophen-3-yl)-N-hydroxy-4-phenylthiazole-5-carboxamide] | < 250
O=C(NO)c1ccc(-c2ccccc2)cc1-c1ccccc1 [Compound 52] | < 250
O=C(NO)c1sc(N2CCCCC2)nc1-c1ccccc1 [Compound 117, N-hydroxy-4-phenyl-2-(piperidin-1-yl)thiazole-5-carboxamide] | < 250
O=C(Nc1ccccc1Oc1ccccc1)c1ccc(C(=O)NO)c(-c2ccccc2)c1 [compound 105] | 500 to 750
Cc1cscc1-c1ccccc1C(=O)NO [Compound 24, N-hydroxy-2-(4-mcthylthiophen-3-yl)benzamide] | 750 to 5000
O=C(NO)c1ccccc1-c1cccc(-c2ccccc2)c1 [Compound 13] | 750 to 5000
